Laboratory results taken from patent US20040167165A1, “Methods of treating conditions associated with an Edg-7 receptor” (priority 2003, published 2004).

Experiments:
[1] = biological target: T1, human Edg 7 receptors (Homo sapiens, UniProt Q9UBY5); assay: LPA-stimulated calcium mobilization (FLIPR) in HTC cells expressing Edg-7; format: cell-based
T1 construct: expressed in transfected cells; host or cells: HTC rat hepatoma cells
T1 sequence (Q9UBY5 1-353): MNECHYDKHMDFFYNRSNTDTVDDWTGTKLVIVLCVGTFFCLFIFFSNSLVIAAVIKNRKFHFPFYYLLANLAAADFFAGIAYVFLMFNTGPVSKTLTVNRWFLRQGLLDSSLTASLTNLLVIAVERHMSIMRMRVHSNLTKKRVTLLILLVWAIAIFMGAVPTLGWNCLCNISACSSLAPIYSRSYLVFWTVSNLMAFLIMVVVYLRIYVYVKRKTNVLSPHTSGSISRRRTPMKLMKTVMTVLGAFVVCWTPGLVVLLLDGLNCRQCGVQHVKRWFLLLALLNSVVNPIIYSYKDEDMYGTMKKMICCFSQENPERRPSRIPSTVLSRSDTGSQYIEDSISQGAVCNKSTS
Protocol: The compounds were tested in HTC cells expressing human Edg 7 receptors, as well as in HT1080 human fibrosarcoma cell lines that naturally express Edg 7 receptors. […] The compounds are tested in this recombinant system first, and subsequently tested in cell lines expressing Edg-7 (in addition to other Edg receptors).
LPA receptors such as Edg-7, couple to calcium effector pathways, and result in increases in intracellular calcium following receptor activation (An, 1998, J. Cell. Biochem Supp. 30-31:147-157). This biological response lends itself to a very efficient, high-throughput screen using a Fluorescence Imaging Plate Reader (FLIPR; Molecular Devices, Sunnyvale, Calif.). The FLIPR system is a real-time, cell-based assay system with continuous fluorescence detection using a cooled CCD camera. The FLIPR system was used to developing an Edg-7 receptor screen. Rat hepatoma cells stably expressing Edg-7 receptor were plated on 384-well plates and loaded with a calcium dye loading kit (Molecular Devices, Sunnyvale, Calif.) for 1 hour at room temperature. Cells were then placed on the FLIPR^384 (Molecular Devices, Sunnyvale, Calif.) and excited by an argon laser at 488 nm. The data for the entire 384-well plate was updated every second. An integrated robotic pipettor allowed for simultaneous compound addition into each individual well in the plate.

[2] = system: targets, including GPCRs and ion channels; assay: Pharmacology profiling: radioligand binding assays on non-Edg targets; details: Section 6.10 panel: adrenergic α1, α2, β, angiotensin AT2, calcium channel Type L, dopamine D2L, endothelin ETA, histamine H1, muscarinic, serotonin 5-HT1; significance criteria ≧50%
Protocol: In order to test the selectivity of compounds, various enzyme assays as well as radioligand binding assays were performed using numerous non-Edg receptor targets as listed below.
A radioligand binding assay was performed using adrenergic α1 according to the method of Greengrass and Bremner 1979, Eur. J. Pharmacol. 55:323-326. A radioligand binding assay was performed using adrenergic α2 according to the method of Boyajian and Leslie, 1987, J. Pharmacol. Exp. Ther. 241:1092-1098. A radioligand binding assay was performed using adrenergic β according to the method of Feve et al., 1994, Proc. Natl. Acad. Sci. USA 91:5677-5681. A radioligand binding assay was performed using angiotensin AT2 according to the method of Whitebread et al., 1991, Biochem. Biophys. Res. Comm. 181:1365-1371. A radioligand binding assay was performed using calcium channel Type L, dihydropyridine according to the method of Ehlert et al., 1982, Life Sci. 30:2191-2202. A radioligand binding assay was performed using dopamine D2L according to the method of Bunzo et al., 1988, Nature 336:783-787. A radioligand binding assay was performed using endothelin ETA according to the method of Mihara et al., 1994, J. Phrmacol. Exp Ther. 268:1122-1127. A radioligand binding assay was performed using histamine H1 Central according to the method of Hill et al., 1978, J. Neurochem. 31:997-1004. […]

[3] = biological target: T2, Edg-3 (Homo sapiens, UniProt Q99500); assay: S1P-stimulated calcium increases in HTC cells expressing Edg-3; format: cell-based; details: concentrations as high as 10 μM
T2 construct: expressed in transfected cells; host or cells: HTC rat hepatoma cells

[4] = system: Edg4; assay: LPA-stimulated calcium increases in HTC cells expressing Edg4; format: cell-based; details: concentrations as high as 10 μM
[5] = biological target: T3, Edg-2 (Homo sapiens, UniProt Q92633); assay: LPA-stimulated calcium increases in HTC cells expressing Edg-2; format: cell-based; details: concentrations as high as 10 μM
T3 construct: expressed in transfected cells; host or cells: HTC rat hepatoma cells

[6] = biological target: T4, Edg-8 (Homo sapiens, UniProt Q9H228); assay: S1P-stimulated calcium increases in HTC cells expressing Edg-8; format: cell-based; details: concentrations as high as 10 μM
T4 construct: expressed in transfected cells; host or cells: HTC rat hepatoma cells

[7] = biological target: T5, Edg-1 (Homo sapiens, UniProt P21453); assay: S1P-stimulated calcium increases in HTC cells expressing Edg-1; format: cell-based; details: concentrations as high as 10 μM
T5 construct: expressed in transfected cells; host or cells: HTC rat hepatoma cells

[8] = biological target: T6, Edg-5 (Homo sapiens, UniProt O95136); assay: S1P-stimulated calcium increases in HTC cells expressing Edg-5; format: cell-based; details: concentrations as high as 10 μM
T6 construct: expressed in transfected cells; host or cells: HTC rat hepatoma cells
T6 sequence (O95136 whole entry): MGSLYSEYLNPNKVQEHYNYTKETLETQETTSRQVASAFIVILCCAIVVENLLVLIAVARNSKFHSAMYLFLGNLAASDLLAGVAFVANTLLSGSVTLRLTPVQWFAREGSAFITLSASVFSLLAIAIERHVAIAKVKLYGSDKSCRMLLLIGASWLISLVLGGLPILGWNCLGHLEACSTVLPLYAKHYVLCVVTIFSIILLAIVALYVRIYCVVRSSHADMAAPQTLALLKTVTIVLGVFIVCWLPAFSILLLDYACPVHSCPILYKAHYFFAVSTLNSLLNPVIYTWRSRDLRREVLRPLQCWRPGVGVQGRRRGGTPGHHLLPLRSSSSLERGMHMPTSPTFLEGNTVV

T4 sequence (Q9H228 whole entry): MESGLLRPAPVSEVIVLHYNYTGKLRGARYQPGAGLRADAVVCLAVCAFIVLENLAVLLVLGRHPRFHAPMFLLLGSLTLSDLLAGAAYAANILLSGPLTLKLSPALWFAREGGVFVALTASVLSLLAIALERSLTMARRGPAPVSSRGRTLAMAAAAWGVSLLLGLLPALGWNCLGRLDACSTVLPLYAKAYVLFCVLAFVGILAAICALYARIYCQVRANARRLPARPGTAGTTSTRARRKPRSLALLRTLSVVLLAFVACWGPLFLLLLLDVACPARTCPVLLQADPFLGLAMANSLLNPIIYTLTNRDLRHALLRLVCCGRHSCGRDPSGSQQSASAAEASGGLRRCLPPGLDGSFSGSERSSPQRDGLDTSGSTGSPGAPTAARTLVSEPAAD
T5 sequence (P21453 whole entry): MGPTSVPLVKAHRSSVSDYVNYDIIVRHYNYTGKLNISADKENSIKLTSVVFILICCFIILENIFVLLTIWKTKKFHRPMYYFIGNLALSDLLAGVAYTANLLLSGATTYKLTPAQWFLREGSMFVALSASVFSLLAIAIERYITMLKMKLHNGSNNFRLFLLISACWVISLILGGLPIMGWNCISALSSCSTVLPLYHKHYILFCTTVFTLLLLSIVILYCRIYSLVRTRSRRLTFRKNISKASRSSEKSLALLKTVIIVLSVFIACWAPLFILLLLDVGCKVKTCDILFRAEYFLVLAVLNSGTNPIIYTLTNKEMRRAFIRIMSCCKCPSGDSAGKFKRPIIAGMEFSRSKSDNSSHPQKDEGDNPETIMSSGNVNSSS
T2 sequence (Q99500 whole entry): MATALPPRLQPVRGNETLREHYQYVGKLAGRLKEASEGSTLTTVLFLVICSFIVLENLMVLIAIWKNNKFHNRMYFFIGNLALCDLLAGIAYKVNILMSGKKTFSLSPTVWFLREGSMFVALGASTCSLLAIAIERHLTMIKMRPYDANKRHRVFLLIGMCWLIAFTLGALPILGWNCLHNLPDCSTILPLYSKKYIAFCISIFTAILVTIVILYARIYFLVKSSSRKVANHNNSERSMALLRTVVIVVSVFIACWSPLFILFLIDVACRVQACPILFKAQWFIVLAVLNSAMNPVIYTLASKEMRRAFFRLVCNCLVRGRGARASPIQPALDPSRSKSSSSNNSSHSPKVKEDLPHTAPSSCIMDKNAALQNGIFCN
T3 sequence (Q92633 whole entry): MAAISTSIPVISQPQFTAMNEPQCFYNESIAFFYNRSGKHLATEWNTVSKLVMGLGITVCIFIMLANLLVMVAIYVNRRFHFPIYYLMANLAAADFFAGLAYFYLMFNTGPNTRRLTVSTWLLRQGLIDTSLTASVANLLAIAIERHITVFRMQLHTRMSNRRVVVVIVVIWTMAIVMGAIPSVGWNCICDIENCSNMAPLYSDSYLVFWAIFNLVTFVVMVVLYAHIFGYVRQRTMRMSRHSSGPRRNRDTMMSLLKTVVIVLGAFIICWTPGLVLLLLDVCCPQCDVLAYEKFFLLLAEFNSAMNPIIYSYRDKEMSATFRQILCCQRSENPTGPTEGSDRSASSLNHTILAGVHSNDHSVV

Compound	inhibition of the Edg-7 receptor ([1]; FIG. 1, HTC cells)	inhibition of Edg-7 stimulated LPA responses ([1]; HTC cells expressing human Edg 7 receptors, as well as HT1080 human fibrosarcoma cell lines)	activity in radioligand binding assays [2]	inhibition of S1P-stimulated calcium increases [3]	inhibition of LPA-stimulated calcium increases [4]	inhibition of LPA-stimulated calcium increases [5]	inhibition of S1P-stimulated calcium increases [6]	inhibition of S1P-stimulated calcium increases [7]	inhibition of S1P-stimulated calcium increases [8]	melting point [°C]
CCOC(=O)c1c(NC(=O)NS(=O)(=O)c2ccccc2Cl)sc2c1CCCC2 [Compound 101]	specifically inhibit	demonstrate inhibition	no significant activity	did not inhibit	did not inhibit	did not inhibit	did not inhibit	did not inhibit	did not inhibit	–
COc1ccc(-c2nc3ccc(C(=O)O)cc3nc2-c2ccc(OC)cc2)cc1 [Compound 129, 2,3-bis-(4-Methoxyphenyl)quinoxaline-6-carboxylic acid]	–	–	–	–	–	–	–	–	–	284 to 285
Cc1cc(C)c2c(c1)Cc1ccccc1S2(=O)=O [Compound 133, 2,4-Dimethyl-9H-thioxanthene 10,10-dioxide]	–	–	–	–	–	–	–	–	–	103 to 105
